One series relates to rodent. Conditions: fluoxetine added to pramipexole; cited from earlier work.
In the next series the test system is Caenorhabditis elegans. The note with it: C. elegans; cited from earlier work.
The test system of the next series is 6-OHDA induced damage. The note with it: toxin-induced model of PD; cited from earlier work.
For another series, the system named is rodents. Conditions: large doses, acute systemic administration; cited from earlier work.
In the next series the test system is MPTP induced damage. The note with it: toxin-induced model of PD; cited from earlier work.
Series [1] concerns patients. Conditions: in vivo; cited from earlier work.
For series [2], the system named is patients. Conditions: 5 mg/day of pramipexole, cited from earlier work.
A further series concerns subjects. The note with it: in vivo.
The next series concerns PD patients. The note with it: doses approved for the motor symptoms of PD; 535 PD patients; cited from earlier work.
The subject of series [3] is α-synuclein in peripheral blood exosomes. Conditions: PD patients, approved therapeutic doses; cited from earlier work.
In a further series the test system is Parkinsonian patient. The note with it: one patient, cited from earlier work.
Another series deals with alpha-synuclein (Homo sapiens, UniProt P37840). Conditions: cited from earlier work.
For series [4], the target named is human wild-type alpha-synuclein (Homo sapiens, UniProt P37840). The note with it: by H2O2 plus cytochrome c; cited from earlier work.
For series [5], the system named is human neuroblastoma SH-SY5Y cells. The note with it: cited from earlier work.
In the next series the test system is mouse PD model. The note with it: cited from earlier work.
A further series has as its system brain cell systems. The note with it: cited from earlier work.
Series [6] has as its system patients with secondary progressive multiple sclerosis. The note with it: high-dose, 140 patients, cited from earlier work.
The next series relates to animals. Conditions: cited from earlier work.
Series [7] relates to rat corticostriatal slices. Conditions: 0.3, 1, 3 and 10 μM; cited from earlier work.
Series [8] concerns mice that received 6-hydroxydopamine. The note with it: injection, 30 mg/kg; cited from earlier work.
A further series concerns Engrailed mutant mice. The note with it: cited from earlier work.
The subject of a further series is MPTP-treated mice. Conditions: 20 mg/kg; cited from earlier work.
The subject of series [9] is A53T α-synuclein-induced neurodegeneration. Conditions: cited from earlier work.
A further series deals with patients with PD. The note with it: 25 mg-50 mg, alone or with levodopa; cited from earlier work.

Like-named read-outs stand apart in the source and are kept apart here.

With `CNCCC(Oc1ccc(C(F)(F)F)cc1)c1ccccc1` (stereo not drawn) [fluoxetine, 1-methylamino-3-phenyl-3-[4-(trifluoromethyl)phenoxy]propane], the “activity of pramipexole in the forced swimming test” value with rodent is listed as “enhance the activity of pramipexole”. Further, in the series with Caenorhabditis elegans, the amyloid-β oligomers result was “reducing amyloid-β oligomers”, the amyloid-β-induced paralysis entry was “significantly delay”, the life span result is “extend life span” and the thermal stress resistance result is reported as “increase thermal stress resistance”. Also, the 6-OHDA induced damage entry in the series on 6-OHDA induced damage is listed as “protect against”. Moreover, the “extracellular concentrations of norepinephrine and dopamine” value with rodents is recorded as “significant increase”. Besides, in the series on MPTP induced damage, the MPTP induced damage entry is reported as “protect against”.
With `CCCN[C@H]1CCc2nc(N)sc2C1` [Pramipexole, (S)-6-propylamino-4,5,6,7-tetrahydro-1,3-benzothiazole-2-amine], the “side effects of the approved doses, often dose-limiting” value in the series with patients [1] was “nausea, vomiting, somnolence, confusion, postural hypotension, and hallucinations as well as gastrointestinal disturbances”. In addition, in the series on patients [2], the “nausea, patients” value was 76%. In addition, the “vomiting, patients” value with patients [2] is given as 39%. The “patients not able to complete the study” value with patients [2] (presumably intolerable GI adverse events) is listed as 36%. In the series with subjects (human), the “first intolerable dose reached” value is listed as “All subjects reached FID-1”. Further, the dose limiting toxicity entry in the series with subjects is “gastro-intestinal adverse events”. The “neuroprotective (disease modifying) activity” value in the series on PD patients is recorded as “failed to evidence neuroprotective (i.e., disease modifying) activity”. For the same compound, in series [3], the “magnitude of the effect on alpha-synuclein expression” value was “small”. Moreover, the hallucinations entry in the series on Parkinsonian patient (extended-release formulation, pramipexole 4.5 mg/day with levodopa, entcapone, selegiline and zonisamide) is listed as “induce hallucinations”; with Parkinsonian patient (immediate release formulation, same combination) it was “not”. Also, at alpha-synuclein, the “oligomerization (and aggregation) of alpha-synuclein in vitro” value is recorded as “diminishes synuclein oligomer formation”. Further, the “in vitro oligomerization of human wild-type alpha-synuclein” value in [4] is recorded as “decreases”. Further, in series [5], the aggregation of alpha-synuclein result is listed as “inhibit the aggregation of alpha-synuclein”. Besides, the “toxic effects of rotenone on dopaminergic neurons” value in the series on mouse PD model (mouse PD model) was “inhibits the toxic effects of rotenone on dopaminergic neurons”. The immunoreactivity for alpha-synuclein result with mouse PD model (rotenone mouse PD model) was “reducing immunoreactivity for alpha-synuclein”.
As for `CCC(C)(C)C(=O)O[C@H]1C[C@@H](C)C=C2C=C[C@H](C)[C@H](CC[C@@H]3C[C@@H](O)CC(=O)O3)[C@H]21` [simvastatin, (1S,3R,7S,8S,8aR)-8-{2-[(2R,4R)-4-hydroxy-6-oxotetrahydro-2H-pyran-2-yl]ethyl}-3,7-dimethyl-1,2,3,7,8,8a-hexahydronaphthalen-1-yl 2,2-dimethylbutanoate], the dopaminergic neurodegeneration entry with brain cell systems (6-OHDA-lesioned cell model (Xu et al. 2013)) is given as “robust neuroprotection against dopaminergic neurodegeneration”. Also, the “consequences of the dopaminergic neurotoxin 6-OHDA” value in the series on brain cell systems (brain cell systems) is “protect against the deleterious consequences of the dopaminergic neurotoxin 6-hydroxydopamine”. For the same compound, the tolerability and safety entry in series [6] is “well tolerated and safe”. Also, the “annualised rate of whole-brain atrophy” value in series [6] (versus placebo) is listed as “reduced the annualised rate of whole-brain atrophy compared with placebo”. For the same compound, the “consequences of dopaminergic neurotoxin MPTP” value in the series on animals is given as “protect against the deleterious consequences of dopaminergic neurotoxin MPTP”.
As for `NS(=O)(=O)Cc1noc2ccccc12` [zonisamide, benzo[d]isoxazol-3-ylmethanesulfonamide], in series [7], the “rotenone-induced toxicity (loss of corticostriatal field potential amplitude)” value is “significantly reduced the rotenone-induced toxicity”. Also, in series [8], the “loss of nigral dopamine neurons” value was “prevented the loss of nigral dopamine neurons”. Further, the “oligomerization (and aggregation) of alpha-synuclein in vitro” value on alpha-synuclein is “inhibits the in vitro oligomerization and aggregation of alpha-synuclein”. Further, the “survival of nigrostriatal dopaminergic neurons, striatal terminals and motor function” value with Engrailed mutant mice (chronic administration, versus saline) was “improved the survival of nigrostriatal dopaminergic neurons as well as their striatal dopaminergic terminals and motor function”. For the same compound, the “brain-derived neurotrophic factor content in striatum and ventral midbrain” value in the series with Engrailed mutant mice (versus saline-treated controls) is “increased”. For the same compound, in the series with MPTP-treated mice, the “loss of nigral TH-positive neurons” value is listed as “reduced the loss of nigral TH-positive neurons” and the striatal dopamine depletion result is listed as “attenuating the associated striatal dopamine depletion”. Moreover, the “duration of the effect” value in [9] (after transgene injection) is given as “lasted at least eight weeks”. In addition, the “survival of nigrostriatal dopamine neurons” value in series [9] (oral, 40 mg/kg/day) was “no impact”. Besides, in [9] (oral, 40 mg/kg/day, four weeks after injection of the viral vector, versus control group), the pace of degeneration result was “significantly delayed the pace of degeneration”. The motor symptoms entry with patients with PD is “improve motor symptoms”.
